Results reported in publication PMC5042873 (Journal of the American Chemical Society, 2016).

Tests used:
GLUT1 transporters = details: cited from earlier work
[1] = In vivo toxicity by body weight and general behavior; design: species or system Balb/c mice; details: 5 mg/kg, 4X in 8 days
[2] = tested on: GLUT1 expressing breast cancer (G1fpt); experiment: In vivo antitumor efficacy, GLUT1 expressing breast cancer syngeneic model; design: species or system Balb/c mice; details: 5 mg/kg i.v. bolus, four treatments once every other day, 30 days

In the case of O=[N+]([O-])c1ccc(NCC2OC(O)C(O)C(O)[C@@H]2O)c2nonc12 (stereo partly shown) [6-NBDG], the “affinity for GLUT1 transporters relative to D-glucose” value (GLUT1 transporters) is listed as 300 fold.

For O=C1[O][Pt]2([NH][C@@H]3CCCC[C@H]3[NH]2)[O]C1=O [oxaliplatin], the body weight [1] was “reduced after the second dose but recovered to normal values”, the “antitumor efficacy (tumor volume)” value [2] was “no statistically significant difference compared to the Glc-Pt 2 treated group” and the “tumors smaller compared to tumors in the PBS treated control group” value [2] was 10 times.
